# In BindingDB's records for doi:10.1021/jm00054a014 (Monsanto Corporate Research, 1993):
# pIC50: −log10 of the molar value.
# Target: T1, Dimer of Gag-Pol polyprotein [489-587] (Human immunodeficiency virus 1, UniProt P12497)
# T1 construct: 489-587
# Experiment: Protease Inhibition Assay
# Settings: pH 6.4; 25 °C
# Experimental: IC50 values for inhibition of recombinant HIV protease were determined using the spectrofluorometric assay, which utilized an intramolecularly quenched fluorogenic substrate, 2-(aminobenzoyl)-Thr-Ile-Nle-Phe(p-NO2)-Gln-ArgNH2. Cleavage of the substrate by HIV protease released the fluorescent N-terminal tripeptide from its close apposition to the quenching nitrobenzyl group, resulting in enhanced fluorescence.
row,Compound,pIC50
1,"CCCCNC(=O)N(C)C[C@@H](O)[C@H](Cc1ccccc1)NC(=O)[C@H](CC(N)=O)NC(=O)OCc1ccccc1 [benzyl N-[(1S)-1-{[(2S,3R)-4-[(butylcarbamoyl)(methyl)amino]-3-hydroxy-1-phenylbutan-2-yl]carbamoyl}-2-carbamoylethyl]carbamate]",< 5.00
2,"CCCCNC(=O)N(CC(C)C)C[C@H](O)[C@H](Cc1ccccc1)NC(=O)[C@H](CC(N)=O)NC(=O)OCc1ccccc1 [benzyl N-[(1S)-1-{[(2S,3S)-4-[(butylcarbamoyl)(2-methylpropyl)amino]-3-hydroxy-1-phenylbutan-2-yl]carbamoyl}-2-carbamoylethyl]carbamate]",< 5.00
3,"CCCCNC(=O)N(C)C[C@H](O)[C@H](Cc1ccccc1)NC(=O)[C@H](CC(N)=O)NC(=O)OCc1ccccc1 [benzyl N-[(1S)-1-{[(2S,3S)-4-[(butylcarbamoyl)(methyl)amino]-3-hydroxy-1-phenylbutan-2-yl]carbamoyl}-2-carbamoylethyl]carbamate]",< 5.00
4,"CNC(=O)N(C)C[C@@H](O)[C@H](Cc1ccccc1)NC(=O)[C@H](CC(N)=O)NC(=O)OCc1ccccc1 [benzyl N-[(1S)-2-carbamoyl-1-{[(2S,3R)-3-hydroxy-4-[methyl(methylcarbamoyl)amino]-1-phenylbutan-2-yl]carbamoyl}ethyl]carbamate]",< 5.00
5,"CNC(=O)N(CC(C)C)C[C@H](O)[C@H](Cc1ccccc1)NC(=O)[C@H](CC(N)=O)NC(=O)OCc1ccccc1 [benzyl N-[(1S)-2-carbamoyl-1-{[(2S,3S)-3-hydroxy-4-[(methylcarbamoyl)(2-methylpropyl)amino]-1-phenylbutan-2-yl]carbamoyl}ethyl]carbamate]",< 5.00
6,"CNC(=O)N(C)C[C@H](O)[C@H](Cc1ccccc1)NC(=O)[C@H](CC(N)=O)NC(=O)OCc1ccccc1 [benzyl N-[(1S)-2-carbamoyl-1-{[(2S,3S)-3-hydroxy-4-[methyl(methylcarbamoyl)amino]-1-phenylbutan-2-yl]carbamoyl}ethyl]carbamate]",< 5.00
